# Reference: US20090099167A1, “Organic compounds” (Novartis Institutes for Biomedical Research, priority 2004, published 2009)
# Target: T1, c-Kit (Homo sapiens, UniProt P10721)
# T1 construct: whole cytoplasmic domain of c-Kit (aa 544-976); made in house; host or cells: Sf9 or High Five (baculovirus)
# Test: c-kit kinase inhibition
# Type: biochemical
# Conditions: Table 4
# T1 sequence (P10721 544-976): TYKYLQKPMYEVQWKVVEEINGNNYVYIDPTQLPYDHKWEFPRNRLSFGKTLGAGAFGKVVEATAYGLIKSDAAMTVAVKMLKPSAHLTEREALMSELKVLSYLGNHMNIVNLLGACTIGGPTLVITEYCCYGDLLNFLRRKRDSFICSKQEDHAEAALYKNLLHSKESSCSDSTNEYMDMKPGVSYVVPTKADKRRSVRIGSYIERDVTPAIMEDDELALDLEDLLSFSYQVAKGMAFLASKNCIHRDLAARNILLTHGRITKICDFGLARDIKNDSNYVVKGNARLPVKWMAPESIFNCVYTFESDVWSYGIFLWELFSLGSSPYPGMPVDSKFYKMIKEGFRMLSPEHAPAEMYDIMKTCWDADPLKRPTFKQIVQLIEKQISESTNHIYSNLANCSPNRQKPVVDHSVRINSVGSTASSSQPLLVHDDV
smiles,measurement,value
"CN1CCN(c2ccc(-c3cnn4c(N)c(-c5ccsc5)cnc34)cc2)CC1 [Example 21, 3-[4-(4-Methyl-piperazin-1-yl)-phenyl]-6-thiophen-3-yl-pyrazolo[1,5-a]pyrimidin-7-ylamine]",IC50,< 10 µM
"COc1cccc(-c2cnc3c(-c4cccc(N5CCN(C)CC5)c4)cnn3c2N)c1 [Example 24, 6-(3-Methoxy-phenyl)-3-[3-(4-methyl-piperazin-1-yl)-phenyl]-pyrazolo[1,5-a]pyrimidin-7-ylamine]",IC50,< 10 µM
